These results are taken from US10239832B2, “N-(1-hydroxy-3-(pyrrolidinyl)propan-2-yl)pyrrolidine-3-carboxamide derivatives as glucosylceramide synthase inhibitors” (BIOMARIN PHARMACEUTICAL INC., priority 2013, dated 2019).

The test concerns the target T1, GCS (Canis lupus familiaris, UniProt A0A8I3MXG6).
T1 construct: endogenous in cells; host or cells: MDCK (Madin-Darby canine kidney) cells, whole-cell lysate
T1 sequence (A0A8I3MXG6 1-394): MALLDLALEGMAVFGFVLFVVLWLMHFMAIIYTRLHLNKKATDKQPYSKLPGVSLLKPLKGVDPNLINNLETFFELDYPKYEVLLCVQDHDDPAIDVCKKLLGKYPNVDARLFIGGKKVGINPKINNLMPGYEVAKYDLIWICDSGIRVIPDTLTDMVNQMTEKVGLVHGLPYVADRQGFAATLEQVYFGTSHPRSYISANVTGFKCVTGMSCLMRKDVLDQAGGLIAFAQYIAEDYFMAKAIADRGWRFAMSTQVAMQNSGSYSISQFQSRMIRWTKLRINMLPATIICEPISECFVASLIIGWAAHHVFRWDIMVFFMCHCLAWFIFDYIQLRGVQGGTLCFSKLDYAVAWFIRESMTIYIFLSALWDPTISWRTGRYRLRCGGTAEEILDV
Kind of test: GCS enzymatic assay (MDCK cell lysate, NBD-ceramide to glucosylceramide, LC/MS). Format: biochemical, canine. The conditions noted are these: Table 2, the table does not say which of the assays; for Data Range (% inhibition): class symbols D, E, F, NA (not active); for IC50: class symbols A, B, C, read-out: Data Range (IC50 values). On the procedure: This assay was modified based on the study by Larsen et al. (J. Lipid Res. 2011, 53, 282). Madin-Darby canine kidney (MDCK) cell lysate was prepared using M-PER Mammalian Protein Extraction Reagent (Thermal Scientific) in the presence of a protease inhibitor cocktail (Roche). Protein concentration was determined using BCA assay kit (Pierce). […] 0.1% DMSO was used as mock treatment or control. The reaction was terminated by adding 100 μL acetonitrile solution and subjected to LC/MS analysis.
The quantitative analysis of NBD-Ceramide and glucosylceramide was performed on a Shimadzu ultra-fast liquid chromatography (Shimadzu, Japan) coupled with API 4000 triple quadrupole mass spectrometer (Applied Biosystems, Concord, Ontario, Canada). Sample separation was conducted on a Waters Xbridge™ BEH130 C18, 100 mm×4.6 mm i.d, 3.5 μm (Milford, Mass., USA). The mobile phase consisted of water and acetonitrile supplemented with 0.1% formic acid (v/v). The flow rate was 1.0 mL/min. The initial mobile phase was 20% acetonitrile and was ramped in a linear fashion to 50% acetonitrile in 0.4 min. From 0.4 to 1.5 min, the gradient was ramped to 98% acetonitrile, and then was held at […] until 8.0 min. Acetonitrile was reset to 20% in 1.5 min, and maintained until 10.0 min. The total run time was 10.0 min. The MS/MS detection was performed in ESI positive mode. The mass transition of NBD-Ceramide was m/z 576.36→558.40 under the collision energy of 15 V, and the mass transition of glucosylceramide was m/z 738.35→558.40 under 21V collision energy. The cell lysate was diluted with equal volume of acetonitrile. Aliquots of 50 μL diluted samples were added to 1.5 mL tubes, and 100 μL of acetonitrile containing internal standard (100 ng/mL tolbutamide) were added for protein precipitation. The mixture were vortexed and then centrifuged at 13000 rpm for 10 min. 70 μL of supernatant were mixed with 140 μL of H2O and the final solution were injected for LC/MS/MS analysis and IC50's and/or percent inhibitions calculated.

As a reminder, the IC50 is the concentration needed to halve the response being measured.

For `O=C(N[C@H](CN1CCCC1)[C@H](O)c1ccc2c(c1)OCCO2)[C@H]1CCN(c2ccc(OC3CC3)c(Cl)c2)C1` [Compound 20E, (S)-1-(3-chloro-4-cyclopropoxyphenyl)-N-((1R,2R)-1-(2,3-dihydrobenzo[b][1,4]dioxin-6-yl)-1-hydroxy-3-(pyrrolidin-1-yl)propan-2-yl)pyrrolidine-3-carboxamide], the “Data Range (% inhibition)” value is “F (1-49% (or less than 50%))”.
On the same count and under the same terms, with `O=C(N[C@H](CN1CCCC1)[C@H](O)c1ccc2c(c1)OCCO2)[C@@H]1CCN(CCc2ccc(Cl)cc2)C1` [Compound 21, (R)-1-(4-chlorophenethyl)-N-((1R,2R)-1-(2,3-dihydrobenzo[b][1,4]dioxin-6-yl)-1-hydroxy-3-(pyrrolidin-1-yl)propan-2-yl)pyrrolidine-3-carboxamide] the entry was “F (1-49% (or less than 50%))”.
As for `O=C(N[C@H](CN1CCCC1)[C@H](O)c1ccc2c(c1)OCCO2)C1CCN(CCc2ccc(Cl)cc2)C1` (stereo partly drawn) [Compound 21E, 1-(4-chlorophenethyl)-N-((1R,2R)-1-(2,3-dihydrobenzo[b][1,4]dioxin-6-yl)-1-hydroxy-3-(pyrrolidin-1-yl)propan-2-yl)pyrrolidine-3-carboxamide], the “Data Range (% inhibition)” value is given as “F (1-49% (or less than 50%))”.
In the case of `O=C(N[C@H](CN1CCCC1)[C@H](O)c1ccc2c(c1)OCCO2)[C@H]1CCN(CCc2ccc(Cl)cc2)C1` [Compound 21F, (S)-1-(4-chlorophenethyl)-N-((1R,2R)-1-(2,3-dihydrobenzo[b][1,4]dioxin-6-yl)-1-hydroxy-3-(pyrrolidin-1-yl)propan-2-yl)pyrrolidine-3-carboxamide], the “Data Range (% inhibition)” value was “F (1-49% (or less than 50%))”.
Same read-out and setting: with `O=C(N[C@H](CN1CCCC1)[C@H](O)c1ccc2c(c1)OCCO2)[C@@H]1CCN(c2ccccn2)C1` [Compound 22, (R)-N-((1R,2R)-1-(2,3-dihydrobenzo[b][1,4]dioxin-6-yl)-1-hydroxy-3-(pyrrolidin-1-yl)propan-2-yl)-1-(pyridin-2-yl)pyrrolidine-3-carboxamide] the entry was “E (50-74% (or less than 75%))”.
Same read-out and setting: with `O=C(N[C@H](CN1CCCC1)[C@H](O)c1ccc2c(c1)OCCO2)C1CCN(c2ccccn2)C1` (stereo partly drawn) [Compound 22C, N-((1R,2R)-1-(2,3-dihydrobenzo[b][1,4]dioxin-6-yl)-1-hydroxy-3-(pyrrolidin-1-yl)propan-2-yl)-1-(pyridin-2-yl)pyrrolidine-3-carboxamide] the entry was “F (1-49% (or less than 50%))”; with `O=C(N[C@H](CN1CCCC1)[C@H](O)c1ccc2c(c1)OCCO2)[C@H]1CCN(c2ccccn2)C1` [Compound 22D, (S)-N-((1R,2R)-1-(2,3-dihydrobenzo[b][1,4]dioxin-6-yl)-1-hydroxy-3-(pyrrolidin-l-yl)propan-2-yl)-1-(pyridin-2-yl)pyrrolidine-3-carboxamide], “F (1-49% (or less than 50%))”.
Consider `CC(C)Oc1ccc([C@@H](O)[C@@H](CN2CCCC2)NC(=O)[C@@H]2CCN(c3ccc(Cl)cc3)C2)cc1Cl` [Compound 23, (R)-N-((1R,2R)-1-(3-chloro-4-isopropoxyphenyl)-1-hydroxy-3-(pyrrolidin-1-yl)propan-2-yl)-1-(4-chlorophenyl)pyrrolidine-3-carboxamide], for which the IC50 was in the range of 1 to 30 nM.
Turning to `CC(C)Oc1ccc([C@@H](O)[C@@H](CN2CCCC2)NC(=O)[C@H]2CCN(c3ccc(Cl)cc3)C2)cc1Cl` [Compound 23B, (S)-N-((1R,2R)-1-(3-chloro-4-isopropoxyphenyl)-1-hydroxy-3-(pyrrolidin-1-yl)propan-2-yl)-1-(4-chlorophenyl)pyrrolidine-3-carboxamide], the “Data Range (% inhibition)” value is “F (1-49% (or less than 50%))”.
Turning to `O=C(N[C@H](CN1CCCC1)[C@H](O)c1ccc2c(c1)OCCO2)[C@@H]1CCN(c2ccc(F)cc2)C1` [Compound 24, (R)-N-((1R,2R)-1-(2,3-dihydrobenzo[b][1,4]dioxin-6-yl)-1-hydroxy-3-(pyrrolidin-1-yl)propan-2-yl)-1-(4-fluorophenyl)pyrrolidine-3-carboxamide], the IC50 was 1 to 30 nM.
